Data from patent US5916576A, “Method of scavenging free radicals using orange extract” (Amway Corporation, priority 1997, dated 1999).

Test: DPPH free radical scavenging activity test (percent inhibition, absorbency at 516 nm)
Format: biochemical
Settings: Table 1; 1% solutions, in the manner of Example 1 (DPPH, 30 minutes at 37° C, 516 nm)
Description: A control solution was prepared by measuring 39.43 mg of 2,2-diphenyl-1-picrylhydrazyl hydrate (DPPH), a known source of free radicals, and diluting it to 1000 ml with ethanol. A control cuvette was charged with 1.75 ml of the control and 1.75 ml of ethanol. A blank cuvette was charged with 3.5 ml of ethanol. The cuvettes were placed in an oven for 30 minutes at 37° C. The absorbency was measured at 516 nm using a UV/vis spectrophotometer by placing the blank cuvette into the reference slot and the control cuvette into the sample slot.
An orange extract was prepared according to the method described above. A test cuvette was charged with 1.75 ml of the control solution and 1.75 ml of a 1% solution of orange extract. A reference cuvette was charged with 1.75 ml of the orange extract and 1.75 ml of ethanol. The cuvettes were placed in an oven for 30 minutes at 37° C. The absorbency was measured in the manner described above with the test cuvette placed in the sample slot and the reference cuvette placed in the reference slot.
The free radical scavenging activity was calculated as a percentage of inhibition of the generation of the free radicals using the following formula:
Percent Inhibition=100×[1-(DT/DR)]
DT is the measured absorbance of the test cuvette with respect to the reference cuvette and DR is the measured absorbance of the control cuvette with respect to the blank cuvette. […]

Structure (SMILES): O=c1oc2cc(O)ccc2s1 [Tioxolone, tioxolone]
- % INHIBITION: 50%

Structure (SMILES): CC(=O)Oc1c(C)c(C)c2c(c1C)CCC(C)(CCC[C@H](C)CCC[C@H](C)CCCC(C)C)O2 (some centres unmarked) [Tocopheryl Acetate, tocopheryl acetate]
- % INHIBITION: 67%
